According to publication PMC8158245, “Novel chalcone/aryl carboximidamide hybrids as potent anti-inflammatory via inhibition of prostaglandin E2 and inducible NO synthase activities: design, synthesis, molecular docking studies and ADMET prediction” (Journal of Enzyme Inhibition and Medicinal Chemistry, 2021):
Values joined by “and” are separate entries in the source; they are usually repeats but may differ in a detail not shown here. Equal values may be shown once. Read-outs that look alike come from different tables or passages of the source.

Experiments:
[1] = MTT cytotoxicity assay on RAW 264.7 cells; assay type: cell-based; details: mouse; for IC50 at 20 h: with LPS; for IC50: without LPS
Method: MTT assay was used to assess the cell viability of RAW 264.7 cells cultured in RPMI-1640 complete media. […] Afterwards, 5 µl of MTT solution were added and incubated for further 4 h. Finally, 150 ul of dimethyl sulfoxide (DMSO) were added and the optical density was assessed at 570 nm using an ELISA plate reader.

[2] = test system: PGE2 production in RAW 264.7 cells; assay: PGE2 concentration by ELISA in LPS-treated RAW 264.7 cells; assay type: cell-based; details: Mus musculus, RAW264.7; LPS-induced RAW 264.7 cells
Method: After seeding and incubation of RAW 264.7 cells for 24 h, then the cells were treated with the compounds (4c, 4d, 6a, 6c, 6d and 6e) at different concentrations and with LPS (1 µg/ml) for another 24 h. The concentration of prostaglandin E2 (PGE2) was measured in the culture media using ELISA kit (R&D Systems, Minneapolis, MN)[50].

[3] = test system: carrageenan-induced paw edoema; assay: Carrageenan-induced rat paw edoema; assay type: in vivo, Wistar albino rats; details: for % of edoema inhibition (% mean ± SEM), 1 h / % of edoema inhibition (% mean ± SEM), 2 h / % of edoema inhibition (% mean ± SEM), 3 h / % of edoema inhibition (% mean ± SEM), 4 h: rat, 50 mg/kg oral; for % of edoema inhibition (% mean ± SEM), 1 h: 1 h after carrageenan; for % of edoema inhibition (% mean ± SEM), 2 h: 2 h after carrageenan; for % of edoema inhibition (% mean ± SEM), 3 h: 3 h after carrageenan; for % of edoema inhibition (% mean ± SEM), 4 h: 4 h after carrageenan
Method: The anti-inflammatory activity of the inspiring active compounds in vitro (4c, 4d, 6a, 6c, 6d and 6e) were further estimated in vivo using the carrageenan-induced paw edoema test. […] The paw thickness was assessed using Vernier calliper after carrageenan injection for 1,2, 3 and 4 h. Wistar albino rats (males weighing 120–140 g, six rats per group) were grouped as follows: Group 1 (Control) rats were received the vehicle. […] The percentage inhibition of edoema thickness was calculated at each time interval in comparison to the control group.

COX-2 [4] = assay: In vitro COX-2 inhibition assay (Cayman kit); assay type: biochemical, bovine; details: selectivity index from COX 1 and COX 2 IC50
iNOS [5] = molecular target: T1, iNOS (Mus musculus, UniProt P29477); assay: iNOS enzymatic activity in LPS-induced RAW 264.7 cells; assay type: cell-based
T1 construct: endogenous in cells; host or cells: RAW 264.7 cells induced with LPS
T1 sequence (P29477 1-1144): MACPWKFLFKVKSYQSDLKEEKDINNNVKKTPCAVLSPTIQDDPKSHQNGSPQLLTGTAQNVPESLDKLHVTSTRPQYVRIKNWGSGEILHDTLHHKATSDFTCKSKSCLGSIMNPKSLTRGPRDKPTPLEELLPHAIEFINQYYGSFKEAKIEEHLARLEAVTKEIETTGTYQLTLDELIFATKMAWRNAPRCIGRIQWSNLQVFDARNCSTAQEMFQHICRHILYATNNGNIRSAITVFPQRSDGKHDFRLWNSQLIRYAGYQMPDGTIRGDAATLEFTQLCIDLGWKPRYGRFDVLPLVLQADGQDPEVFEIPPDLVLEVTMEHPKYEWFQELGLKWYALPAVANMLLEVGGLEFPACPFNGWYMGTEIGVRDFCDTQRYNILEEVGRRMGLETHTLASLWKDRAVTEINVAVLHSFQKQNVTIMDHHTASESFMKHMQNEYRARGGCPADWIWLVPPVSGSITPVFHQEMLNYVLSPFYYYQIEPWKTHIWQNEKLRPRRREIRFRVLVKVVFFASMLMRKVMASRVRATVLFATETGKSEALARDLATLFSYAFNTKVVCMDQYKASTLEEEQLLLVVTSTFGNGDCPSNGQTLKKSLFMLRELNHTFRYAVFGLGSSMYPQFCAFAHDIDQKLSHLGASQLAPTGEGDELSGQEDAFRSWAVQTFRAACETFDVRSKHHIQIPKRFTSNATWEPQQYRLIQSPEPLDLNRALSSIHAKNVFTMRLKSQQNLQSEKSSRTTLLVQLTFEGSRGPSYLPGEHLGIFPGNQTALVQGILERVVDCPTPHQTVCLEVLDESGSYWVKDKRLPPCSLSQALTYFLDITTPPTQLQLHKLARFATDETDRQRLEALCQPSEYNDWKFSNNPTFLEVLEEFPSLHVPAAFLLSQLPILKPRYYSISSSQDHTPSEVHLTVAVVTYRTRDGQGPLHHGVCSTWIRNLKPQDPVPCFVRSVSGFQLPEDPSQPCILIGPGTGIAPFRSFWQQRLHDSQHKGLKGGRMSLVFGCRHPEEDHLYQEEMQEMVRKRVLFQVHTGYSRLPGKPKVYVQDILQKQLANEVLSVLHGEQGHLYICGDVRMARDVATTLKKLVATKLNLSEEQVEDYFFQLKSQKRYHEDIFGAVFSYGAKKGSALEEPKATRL
Method: Then, the NOS assay reaction solution (100 µl/well) was added and incubated for an extra 2 h at 37 °C. The fluorescence with excitation wavelength at 485 nm and emission wavelength at 528 nm was measured using a fluorescent microplate reader.

bovine COX-1 = molecular target: T2, bovine COX-1 (Ovis aries, UniProt P05979); assay: In vitro COX-1 inhibition assay (Cayman kit); assay type: biochemical
T2 construct: purchased Cayman Chemical 560101
T2 sequence (P05979 25-600): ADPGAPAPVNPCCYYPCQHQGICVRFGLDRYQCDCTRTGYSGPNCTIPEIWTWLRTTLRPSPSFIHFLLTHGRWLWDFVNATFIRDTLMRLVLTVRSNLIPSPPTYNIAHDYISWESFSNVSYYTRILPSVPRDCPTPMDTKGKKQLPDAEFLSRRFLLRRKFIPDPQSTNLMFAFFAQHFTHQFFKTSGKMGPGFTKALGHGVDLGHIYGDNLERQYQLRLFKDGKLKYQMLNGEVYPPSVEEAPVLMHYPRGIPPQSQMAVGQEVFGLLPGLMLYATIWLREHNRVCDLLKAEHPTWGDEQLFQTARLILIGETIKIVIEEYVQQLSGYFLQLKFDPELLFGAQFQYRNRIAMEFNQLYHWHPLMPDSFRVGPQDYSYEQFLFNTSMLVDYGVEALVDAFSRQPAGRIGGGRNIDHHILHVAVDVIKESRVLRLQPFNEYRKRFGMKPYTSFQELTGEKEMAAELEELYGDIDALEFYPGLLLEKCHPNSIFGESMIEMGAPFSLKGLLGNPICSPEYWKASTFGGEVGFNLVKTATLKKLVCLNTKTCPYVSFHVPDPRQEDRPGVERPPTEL

[6] = test system: LPS-induced NO production in RAW 264.7 cells; assay: Griess assay for NO release from LPS-stimulated RAW 264.7 cells; assay type: cell-based; details: Mus musculus, RAW264.7; for IC50: LPS-induced RAW 264.7 cells; for inhibition at 5 µM: compounds at 5 µM, 2 h before LPS, RAW 264.7 cells, read-out: NO Inhibition rates (%) ± SD
Method: Equal volumes of Griess reagent and the supernatant, obtained from treated RAW264.7 cells with the compounds 2 h before LPS induction, were mixed for 10 min at room temperature in the dark. The absorbance was measured at 540 nm using ELISA plate reader and the nitrite concentration was calculated from sodium nitrite standard curve. The percentage inhibition (%) is calculated as absorbance at 540 nm of (LPS-compounds)/absorbance at 540 nm of (LPS-control) ×100[47]^,[48].

COX-2 [7] = test system: COX-2; parameters: method as in PMID 30878890; details: cited from earlier work; for IC50: Figure 1
15-LOX = test system: 15-LOX; parameters: method as in PMID 30878890; details: Figure 1; cited from earlier work
[8] = test system: LPS-induced NO production; details: cited from earlier work
PGE2 = details: cited from earlier work
iNOS [9] = molecular target: T1, iNOS; details: cited from earlier work
[10] = four hours after carrageenan injection

Row | SMILES | IC50 at 20 h [1] [µM] | IC50 [1] [µM] | IC50 [2] [µM] | % of edoema inhibition (% mean ± SEM), 1 h [3] [%] | % of edoema inhibition (% mean ± SEM), 2 h [3] [%] | % of edoema inhibition (% mean ± SEM), 3 h ([3]; 50 mg/kg) | SI (COX-2 [4]) | IC50 (iNOS [5]) [µM] | IC50 (bovine COX-1) [µM] | IC50 [6] [µM] | inhibition at 5 µM [6] [%] | further results
1 | COc1ccc(C(=O)/C=C/c2ccc(OCC(=O)O/N=C(\N)c3ccccc3)cc2)cc1 [Compound 6a, N’-(2-{4-[(1E)-3-(4-Methoxyphenyl)-3-oxoprop-1-en-1-yl]phenoxy}acetoxy) benzenecarboximidamide] | > 80 | > 80 | 0.0481 | 14.36 ± 3.11 | 24.33 ± 2.26 | 45.83% and 45.83 ± 2.74% | 19 | 6.32 | 20.9 ± 1.09 | 13.6 | 55.5 ± 2.4 | % of edoema inhibition (% mean ± SEM), 4 h [3]: 55.74 ± 2.59%; melting point: 172 to 173 °C
2 | COc1ccc(C(=O)/C=C/c2ccc(OCC(=O)ON=C(N)c3ccc(OC)cc3)cc2)cc1 [Compound 6c, N’-(2-{4-[(1E)-3-(4-Methoxyphenyl)-3-oxoprop-1-en-1-yl]phenoxy}acetoxy)-4-methoxybenzenecarboximidamide] | > 80 | > 80 | 0.0275 | 11.42 ± 1.75 | 28.44 ± 2.75 | 54.36% and 54.36 ± 2.34% | 7.79 | 2.45 | 64.4 ± 3.35 | 5.92 | 67.1 ± 2.4 | % of edoema inhibition (% mean ± SEM), 4 h ([3]; 50 mg/kg): 62.21% and 62.21 ± 3.46%
3 | COc1ccc(C(=O)/C=C/c2ccc(OCC(=O)O/N=C(\N)c3ccc(OC)c(OC)c3)cc2)cc1 [Compound 6d, N’-(2-{4-[(1E)-3-(4-Methoxyphenyl)-3-oxoprop-2-en-1-yl]phenoxy}acetoxy) -3,4-dimethoxybenzenecarboximidamide] | > 80 | > 80 | 0.0212 | 13.25 ± 2.04 | 38.43 ± 3.62 | 65.31% and 65.31 ± 2.64% | 0.17 | 1.91 | 17.8 ± 0.93 | 4.36 | 78.2 ± 3.4 | anti-inflammatory activity relative to celecoxib [3, 10]: ~7 fold; anti-inflammatory activity relative to indomethacin [3, 10]: ~1.5 fold; % of edoema inhibition (% mean ± SEM), 4 h ([3]; 50 mg/kg): 78.51% and 78.53% and 78.53 ± 3.28%
4 | COc1ccc(C(=O)/C=C/c2ccc(OCC(=O)O/N=C(\N)c3ccc([N+](=O)[O-])cc3)cc2)cc1 [Compound 6e, N’-(2-{4-[(1E)-3-(4-Methoxyphenyl)-3-oxoprop-2-en-1-yl]phenoxy}acetoxy)-4-nitrobenzenecarboximidamide] | > 80 | > 80 | 0.0451 | 10.23 ± 3.17 | 19.34 ± 2.45 | – | 7.43 | 7.15 | 12.7 ± 0.66 | 15.8 | 57.9 ± 1.3 | % of edoema inhibition (% mean ± SEM), 4 h [3]: 33.21 ± 3.15%; melting point: 193 to 194 °C
5 | COc1ccc2cc(C(C)C(=O)O/N=C(\N)c3ccc(Cl)cc3)ccc2c1 (centres unmarked) [IV] | – | – | – | – | – | – | – | – | – | – | – | IC50 (COX-2 [7]): 7.15 nM; IC50 (15-LOX): 1.77 nM
6 | COc1ccc2c(c1)c(CC(=O)O/N=C(\N)c1ccc(OC)c(OC)c1)c(C)n2C(=O)c1ccc(Cl)cc1 [VII] | – | – | – | – | – | – | – | – | – | – | – | IC50 ([8]; Figure 1, read-out: NO IC50): 6.53 µM; IC50 (PGE2): 0.0345 µM; IC50 (iNOS [9]; Figure 1, read-out: iNOS IC50): 3.26 µM
7 | COc1ccc2c(c1)c(CC(=O)O/N=C(\N)c1ccccc1)c(C)n2C(=O)c1ccc(Cl)cc1 [VI] | – | – | – | – | – | – | – | – | – | – | – | IC50 ([8]; as printed in the introduction, read-out: LPS-induced NO production IC50): 10.7 µM; IC50 (PGE2): 0.029 µM; IC50 (iNOS [9]; as printed in the introduction, read-out: iNOS activity IC50): 2.31 µM
8 | COc1ccc2cc(C(C)C(=O)O/N=C(\N)c3ccc(OC)c(OC)c3)ccc2c1 (centres unmarked) [V] | – | – | – | – | – | – | – | – | – | – | – | IC50 (COX-2 [7]): 6.4 nM; COX-2 inhibitory potency relative to celecoxib (COX-2 [7]): approximately 6.6 folds; IC50 (15-LOX): 2.07 nM
